One experiment addresses T1, PDGF-Ra (Homo sapiens, UniProt P16234).
T1 construct: host or cells: G-292 human osteosarcoma cells
Put plainly: Inhibitory activity against PDGF-Ra phosphorylation by PDGF-AA stimulation using G292. The format is cell-based. The conditions noted are these: for IC50: > means inhibition at indicated concentration not more than 50%, < and << not less than 50%, read-out: PDGF (E) IC50; for inhibition at 0.1 µM: G292, at 100 nM, read-out: PDGF (E) inhibition (%) at 100 nM; for PDGF (E) inhibition (%), figure in parentheses in >30( ): concentration not defined in key (presumably 30 nM). In outline: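 G-292 human osteosarcoma cells in 0.1% FBS medium overnight, given compound for 1 hr at 37° C, then PDGF-AA 50 ng/ml for 5 min. Lysates captured on anti-phosphotyrosine (PY-20) plates and probed with anti-PDGF-Ra plus HRP secondary; absorbance at 450 nm.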

The target in another experiment is T2, c-kit (Homo sapiens, UniProt P10721).
T2 construct: MO7e (human megakaryocytic leukemia cell line) which had been arrested for 20 hr; endogenous in cells; host or cells: MO7e human megakaryocytic leukemia cell line
T2 sequence (P10721 26-976): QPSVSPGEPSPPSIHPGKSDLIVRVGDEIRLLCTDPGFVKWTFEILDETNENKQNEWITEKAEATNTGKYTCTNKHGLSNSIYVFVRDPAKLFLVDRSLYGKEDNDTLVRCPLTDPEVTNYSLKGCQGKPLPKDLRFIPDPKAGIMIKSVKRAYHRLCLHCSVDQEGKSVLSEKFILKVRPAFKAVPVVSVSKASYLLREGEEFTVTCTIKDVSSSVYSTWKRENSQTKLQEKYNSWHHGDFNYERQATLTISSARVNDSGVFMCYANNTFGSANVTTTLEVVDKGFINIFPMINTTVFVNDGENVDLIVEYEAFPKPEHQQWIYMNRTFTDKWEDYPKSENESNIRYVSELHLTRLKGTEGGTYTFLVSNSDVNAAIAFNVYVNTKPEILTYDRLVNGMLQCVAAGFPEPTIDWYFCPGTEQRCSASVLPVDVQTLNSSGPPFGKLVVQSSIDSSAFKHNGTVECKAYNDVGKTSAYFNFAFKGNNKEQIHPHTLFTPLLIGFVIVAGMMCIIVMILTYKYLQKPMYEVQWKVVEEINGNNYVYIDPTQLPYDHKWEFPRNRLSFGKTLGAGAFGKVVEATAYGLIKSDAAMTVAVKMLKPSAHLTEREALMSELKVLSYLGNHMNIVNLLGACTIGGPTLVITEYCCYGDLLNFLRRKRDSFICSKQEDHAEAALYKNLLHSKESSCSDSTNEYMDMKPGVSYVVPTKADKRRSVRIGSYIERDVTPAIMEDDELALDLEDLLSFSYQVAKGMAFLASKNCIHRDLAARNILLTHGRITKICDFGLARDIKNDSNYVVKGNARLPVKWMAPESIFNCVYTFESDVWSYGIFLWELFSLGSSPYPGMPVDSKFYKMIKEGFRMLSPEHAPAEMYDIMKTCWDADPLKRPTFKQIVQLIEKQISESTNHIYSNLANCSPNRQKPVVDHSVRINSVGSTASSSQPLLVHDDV
Put plainly: Inhibitory activity against c-kit autophosphorylation (MO7e cells, h-SCF). The conditions noted are these: for IC50: MO7e cells, read-out: c-kit IC50; for inhibition at 1 µM: Mo7e, at 1000 nM. The format is cell-based. In a few lines:
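Phospho-c-kit ELISA: plate-bound PY-20 anti-phosphotyrosine captures lysate, anti-c-kit plus peroxidase-labelled secondary antibody detect, read at 450 nm. Lysates come from 20 hr-arrested MO7e cells given compound for 1 hr before a 5 min 50 ng/ml h-SCF stimulus.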

[1] abbreviates: figure within parentheses in −( ) or >1000( ).
The mark [2] stands for this setting: figure within parentheses in >100( ).

Read-outs that look alike come from different tables or passages of the source.

T1 sequence (P16234 24-1089): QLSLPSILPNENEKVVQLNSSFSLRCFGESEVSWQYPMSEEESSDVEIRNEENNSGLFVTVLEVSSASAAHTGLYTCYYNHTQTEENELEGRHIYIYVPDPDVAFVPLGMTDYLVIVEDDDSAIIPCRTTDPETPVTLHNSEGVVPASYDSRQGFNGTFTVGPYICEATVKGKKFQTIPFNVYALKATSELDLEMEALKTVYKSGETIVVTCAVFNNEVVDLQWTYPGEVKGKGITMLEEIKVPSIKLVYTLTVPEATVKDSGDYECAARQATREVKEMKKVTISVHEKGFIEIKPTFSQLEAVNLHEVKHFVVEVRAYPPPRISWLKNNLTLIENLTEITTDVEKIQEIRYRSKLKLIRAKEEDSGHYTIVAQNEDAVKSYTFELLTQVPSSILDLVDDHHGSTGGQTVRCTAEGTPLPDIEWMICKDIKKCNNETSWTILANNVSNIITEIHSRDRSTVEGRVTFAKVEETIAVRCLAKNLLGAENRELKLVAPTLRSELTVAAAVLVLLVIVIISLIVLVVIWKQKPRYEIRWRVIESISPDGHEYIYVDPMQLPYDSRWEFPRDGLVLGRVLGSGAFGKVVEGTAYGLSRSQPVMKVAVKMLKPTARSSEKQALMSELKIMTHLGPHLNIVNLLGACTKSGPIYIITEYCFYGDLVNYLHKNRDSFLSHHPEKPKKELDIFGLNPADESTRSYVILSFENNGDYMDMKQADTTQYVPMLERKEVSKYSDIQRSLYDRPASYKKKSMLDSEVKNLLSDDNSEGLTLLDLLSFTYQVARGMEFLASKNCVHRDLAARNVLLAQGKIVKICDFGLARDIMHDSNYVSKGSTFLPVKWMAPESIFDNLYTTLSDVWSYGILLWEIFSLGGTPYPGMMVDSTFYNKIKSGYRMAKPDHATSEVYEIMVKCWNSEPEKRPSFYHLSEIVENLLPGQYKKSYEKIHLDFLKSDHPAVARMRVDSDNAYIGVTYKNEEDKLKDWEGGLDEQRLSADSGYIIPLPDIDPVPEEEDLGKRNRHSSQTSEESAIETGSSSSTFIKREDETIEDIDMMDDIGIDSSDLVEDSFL

In the case of `COc1cc2nccc(Oc3ccc(OCCCOc4cccc(C)c4)cc3)c2cc1OC` [Example 791, 6,7-Dimethoxy-4-{4-[3-(3-methylphenoxy)propoxy]phenoxy}quinoline], the IC50 on PDGF-Ra was determined as 3 nM; at c-kit (50 ng/ml h-SCF) it was 208 nM.

In the case of `COc1cc2nccc(Oc3ccc(OCCCOc4ccccc4C)cc3)c2cc1OC` [Example 792, 6,7-Dimethoxy-4-{4-[3-(2-methylphenoxy)propoxy]phenoxy}quinoline], the IC50 on PDGF-Ra was determined as 6 nM; on c-kit (50 ng/ml h-SCF), 301 nM.

For `COc1cccc(OCCCOc2ccc(Oc3ccnc4cc(OC)c(OC)cc34)cc2)c1` [Example 793, 6,7-Dimethoxy-4-{4-[3-(3-methoxyphenoxy)propoxy]phenoxy}quinoline], the IC50 came out at 6 nM on PDGF-Ra and 335 nM at c-kit (50 ng/ml h-SCF).

Turning to `COc1ccc(OCCCOc2ccc(Oc3ccnc4cc(OC)c(OC)cc34)cc2)cc1` [Example 794, 6,7-Dimethoxy-4-{4-[3-(4-methoxy-phenoxy)propoxy]phenoxy}quinoline], the IC50 at PDGF-Ra amounted to 14 nM; at c-kit (50 ng/ml h-SCF), 192 nM.

With `COc1cc2nccc(Oc3ccc(OCCCOc4ccccc4OC)cc3)c2cc1OC` [Example 795, 6,7-Dimethoxy-4-{4-[3-(2-methoxy-phenoxy)propoxy]phenoxy}quinoline], the figures for the IC50 on PDGF-Ra and on c-kit (50 ng/ml h-SCF) were 5 nM and 336 nM, respectively.

Take `COc1cc2nccc(Oc3ccc(OCCCOc4ccccc4F)cc3)c2cc1OC` [Example 796, 4-{4-[3-(2-Fluorophenoxy)propoxy]phenoxy}-6,7-dimethoxyquinoline]: the IC50 was 15 nM at PDGF-Ra and 394 nM on c-kit (50 ng/ml h-SCF).

Consider `COc1cc2nccc(Oc3ccc(OCCCOc4cccc(F)c4)cc3)c2cc1OC` [Example 797, 4-{4-[3-(3-Fluorophenoxy)propoxy]phenoxy}-6,7-dimethoxyquinoline], for which the IC50 on PDGF-Ra was 27 nM; on c-kit (50 ng/ml h-SCF) it was 403 nM.

With `COc1cc2nccc(Oc3ccc(OCCCOc4ccc(F)cc4)cc3)c2cc1OC` [Example 798, 4-{4-[3-(4-Fluorophenoxy)propoxy]phenoxy}-6,7-dimethoxyquinoline], the IC50 at PDGF-Ra was less than 10 nM; at c-kit (50 ng/ml h-SCF) it was 439 nM.

For `COc1cccc(NC(=O)COc2ccc(Oc3ncnc4cc(OC)c(OC)cc34)cc2)c1` [Example 800, N1-(3-Methoxyphenyl)-2-{4-[(6,7-dimethoxy-4-quinazolinyl)oxy]phenoxy}acetamide], the IC50 was less than 10 nM at PDGF-Ra and 30 nM at c-kit (50 ng/ml h-SCF).

`COc1cccc(CNC(=O)COc2ccc(Oc3ncnc4cc(OC)c(OC)cc34)cc2)c1` [Example 801, N1-(3-Methoxybenzyl)-2-{4-[(6,7-dimethoxy-4-quinazolinyl)oxy]phenoxy}acetamide]: the results for the IC50 on PDGF-Ra and at c-kit (50 ng/ml h-SCF) were 13 nM and 70 nM, respectively.

As for `COc1cc2ncnc(Oc3ccc(OCC(=O)N4CCc5ccccc5C4)cc3)c2cc1OC` [Example 802, 2-{4-[(6,7-Dimethoxy-4-quinazolinyl)oxy]phenoxy}-1-(1,2,3,4-tetrahydro-2-isoquinolyl)-1-ethanone], on PDGF-Ra, the IC50 is less than 10 nM. Moreover, at c-kit (setting [1]), the inhibition at 1 µM came to 42%.

`COc1cc2ncnc(Oc3ccc(OCC(=O)N4CCC(c5ccccc5)CC4)cc3)c2cc1OC` [Example 803, 2-{4-[(6,7-Dimethoxy-4-quinazolinyl)oxy]phenoxy}-1-(4-phenylpiperidino)-1-ethanone]: on PDGF-Ra, the IC50 was 13 nM. The inhibition at 1 µM on c-kit (setting [1]) was 20%.

`COc1cc2ncnc(Oc3ccc(OCC(=O)N4CCC(Cc5ccccc5)CC4)cc3)c2cc1OC` [Example 804, 1-(4-Benzylpiperidino)-2-{4-[(6,7-dimethoxy-4-quinazolinyl)oxy]phenoxy}-1-ethanone]: at PDGF-Ra, the IC50 turned out to be 37 nM. For the same compound, the inhibition at 1 µM at c-kit (setting [1]) turned out to be 20%.

With `COc1cc2ncnc(Oc3ccc(OCC(=O)N4CCC(N5CCCCC5)CC4)cc3)c2cc1OC` [Example 805, 2-{4-[(6,7-Dimethoxy-4-quinazolinyl)oxy]phenoxy}-1-(4-piperidinopiperidino)-1-ethanone], the IC50 on PDGF-Ra is greater than 100 nM. At PDGF-Ra (setting [2]), the inhibition at 0.1 µM is 14%. The inhibition at 1 µM on c-kit (setting [1]) is 35%.

Turning to `CCN(CC)CCOc1ccc(Oc2ncnc3cc(OC)c(OC)cc23)cc1` [Example 807, N-(2-{4-[(6,7-Dimethoxy-4-quinazolinyl)oxy]phenoxy}ethyl)-N,N-diethylamine], the IC50 on PDGF-Ra is greater than 100 nM. Moreover, at PDGF-Ra (setting [2]), the inhibition at 0.1 µM amounted to 20%. Besides, the inhibition at 1 µM on c-kit (setting [1]) is 20%.

With `COc1cc2ncnc(Oc3ccc(OCCCOc4ccc(F)cc4)cc3)c2cc1OC` [Example 808, 4-{4-[3-(4-Fluorophenoxy)propoxy]phenoxy}-6,7-dimethoxyquinazoline], the IC50 at PDGF-Ra is less than 10 nM; at c-kit (50 ng/ml h-SCF) it was 61 nM.

For `COc1cccc(OCCCOc2ccc(Oc3ncnc4cc(OC)c(OC)cc34)cc2)c1` [Example 809, 6,7-Dimethoxy-4-{4-[3-(3-methoxyphenoxy)propoxy]phenoxy}quinazoline], the half-maximal inhibitory concentration (IC50) at PDGF-Ra is less than 10 nM; at c-kit (h-SCF stimulation), 73 nM.

With `COc1cc2ncnc(Oc3ccc(OCCCOc4ccccc4OC)cc3)c2cc1OC` [Example 810, 6,7-Dimethoxy-4-{4-[3-(2-methoxyphenoxy)propoxy]phenoxy}quinazoline], the results for the IC50 at PDGF-Ra and at c-kit (h-SCF stimulation) were 18 nM and 269 nM, respectively.

`COc1cc2ncnc(Oc3ccc(OCCCn4ccc5ccccc54)cc3)c2cc1OC` [Example 811, 4-{4-[3-(1H-1-Indolyl)propoxy]phenoxy}-6,7-dimethoxyquinazoline]: the IC50 at PDGF-Ra was determined as 17 nM. Moreover, the inhibition at 1 µM at c-kit (figure in parentheses in −( )) was 20%.

For `COc1cc2nccc(Oc3ccc(NCCOc4cccc(C)c4)cc3C)c2cc1OC` [Example 878, N-{4-[(6,7-Dimethoxy-4-quinolyl)oxy]-3-methylphenyl}-N-[2-(3-methylphenoxy)ethyl]amine], the figures for the IC50 on PDGF-Ra and on c-kit (h-SCF stimulation) were 19 nM and 65 nM, respectively.

Consider `COc1cc2nccc(Oc3ccc(NCCOc4ccc(C)cc4)cc3C)c2cc1OC` [Example 879, N-{4-[(6,7-Dimethoxy-4-quinolyl)oxy]-3-methylphenyl}-N-[2-(4-methylphenoxy)ethyl]amine], for which the IC50 on PDGF-Ra is 20 nM; on c-kit (h-SCF stimulation) it was 48 nM.

For `COc1cc2nccc(Oc3ccc(NCCOc4ccccc4OC)cc3C)c2cc1OC` [Example 880, N-{4-[(6,7-Dimethoxy-4-quinolyl)oxy]-3-methylphenyl}-N-[2-(2-methoxyphenoxy)ethyl]amine], the IC50 is 16 nM on PDGF-Ra and 149 nM at c-kit (h-SCF stimulation).

`COc1cc2nccc(Oc3ccc(NCCOc4c(C)cccc4C)cc3C)c2cc1OC` [Example 881, N-{4-[(6,7-Dimethoxy-4-quinolyl)oxy]-3-methylphenyl}-N-[2-(2,6dimethylphenoxy)ethyl]amine]: on PDGF-Ra, the IC50 was greater than 30 nM and the “PDGF (E) inhibition (%), figure in parentheses in >30( )” value was 29%. The IC50 on c-kit (h-SCF stimulation) is 346 nM.

As to `COc1cc2nccc(Oc3ccc(NCCOc4c(OC)cccc4OC)cc3C)c2cc1OC` [Example 882, N-[2-(2 6-Dimethoxyphenoxy)ethyl]-N-{4-[(6,7-dimethoxy-4-quinolyl)oxy]-3-methylphenyl}amine], on PDGF-Ra, the IC50 came to 23 nM. The inhibition at 1 µM on c-kit (figure in parentheses in −( )) stood at 36%.

Consider `COc1cc2nccc(Oc3ccc(NCCOc4c(F)cccc4F)cc3C)c2cc1OC` [Example 883, N-[2-(2,6-Difluorophenoxy)ethyl]-N-{4-[(6,7-dimethoxy-4-quinolyl)oxy]-3-methylphenyl}amine], for which, on PDGF-Ra, the IC50 is greater than 30 nM and the “PDGF (E) inhibition (%), figure in parentheses in >30( )” value is >30(30) %. In addition, the IC50 on c-kit (h-SCF stimulation) came out at 521 nM.

In the case of `COc1cc2nccc(Oc3ccc(NCCOc4c(OC)cccc4OC)c(C)c3C)c2cc1OC` [Example 884, N-[2-(2,6-Dimethoxyphenoxy)ethyl]-N-{4-[(6,7-dimethoxy-4-quinolyl)oxy]-2,3-dimethylphenyl}amine], the IC50 at PDGF-Ra turned out to be 44 nM. The inhibition at 1 µM at c-kit (figure in parentheses in −( )) came to 30%.

For `COc1cc2nccc(Oc3ccc(NCCCOc4ccccc4)cc3)c2cc1OC` [Example 885, N-{4-[(6,7-Dimethoxy-4-quinolyl)oxy]phenyl}-N-(3-phenoxypropyl)amine], the IC50 on PDGF-Ra was less than 3 nM; at c-kit (h-SCF stimulation), 420 nM.

For `COc1cc2nccc(Oc3cc(C)c(NCCCOc4ccccc4)cc3C)c2cc1OC` [Example 886, N-{4-[(6,7-Dimethoxy-4-quinolyl)oxy]-2 5-dimethylphenyl}-N-(3-phenoxypropyl)amine], at PDGF-Ra, the IC50 was greater than 100 nM. In addition, on PDGF-Ra (figure in parentheses in >100( )), the inhibition at 0.1 µM amounted to 47%. For the same compound, the inhibition at 1 µM at c-kit (figure in parentheses in −( )) amounted to 27%.

For the compound `COc1cc2nccc(Oc3ccc(NCCCOc4ccccc4)c(C)c3C)c2cc1OC` [Example 887, N-{4-[(6,7-Dimethoxy-4-quinolyl)oxy]-2,3-dimethylphenyl}-N-(3-phenoxypropyl)amine], at PDGF-Ra, the IC50 was determined as 50 nM. Moreover, the inhibition at 1 µM at c-kit (figure in parentheses in −( )) came to 20%.

For the compound `COc1cc2nccc(Oc3ccc(NCCCOc4ccccc4C)cc3)c2cc1OC` [Example 888, N-{4-[(6,7-Dimethoxy-4-quinolyl)oxy]phenyl}-N-[3-(2-methylphenoxy)propyl]amine], the figures for the IC50 on PDGF-Ra and at c-kit (h-SCF stimulation) were 12 nM and 385 nM, respectively.

A word on the IC50: it is the concentration needed to halve the response being measured. For orientation: inhibition means the drop in the measured response relative to a control, in per cent.

Source of the values: patent publication US7135466B2 (Kirin Beer Kabushiki Kaisha, priority 1999, dated 2006).
